Measured values taken from patent US10166203B2, “Pharmaceutical composition for treating cancer including 2-methoxy-4-(3-(4-methoxyphenyl)prop-1-en-1-yl)phenol as active ingredient” (CHUNGBUK NATIONAL UNIVERSITY INDUSTRY-ACADEMIC COOPERATION …, priority 2015, dated 2019).
In brackets after ≈: the same amount, converted by molar mass.

Tests used:
STAT3 = biological target: T1, STAT3 (Homo sapiens, UniProt P40763); test: DNA binding activity of STAT3 using EMSA; assay type: cell-based; details: SW480 cells exposed for 1 hour
T1 construct: endogenous in cells; host or cells: SW480 cells (nuclear extract)
T1 sequence (P40763 whole entry): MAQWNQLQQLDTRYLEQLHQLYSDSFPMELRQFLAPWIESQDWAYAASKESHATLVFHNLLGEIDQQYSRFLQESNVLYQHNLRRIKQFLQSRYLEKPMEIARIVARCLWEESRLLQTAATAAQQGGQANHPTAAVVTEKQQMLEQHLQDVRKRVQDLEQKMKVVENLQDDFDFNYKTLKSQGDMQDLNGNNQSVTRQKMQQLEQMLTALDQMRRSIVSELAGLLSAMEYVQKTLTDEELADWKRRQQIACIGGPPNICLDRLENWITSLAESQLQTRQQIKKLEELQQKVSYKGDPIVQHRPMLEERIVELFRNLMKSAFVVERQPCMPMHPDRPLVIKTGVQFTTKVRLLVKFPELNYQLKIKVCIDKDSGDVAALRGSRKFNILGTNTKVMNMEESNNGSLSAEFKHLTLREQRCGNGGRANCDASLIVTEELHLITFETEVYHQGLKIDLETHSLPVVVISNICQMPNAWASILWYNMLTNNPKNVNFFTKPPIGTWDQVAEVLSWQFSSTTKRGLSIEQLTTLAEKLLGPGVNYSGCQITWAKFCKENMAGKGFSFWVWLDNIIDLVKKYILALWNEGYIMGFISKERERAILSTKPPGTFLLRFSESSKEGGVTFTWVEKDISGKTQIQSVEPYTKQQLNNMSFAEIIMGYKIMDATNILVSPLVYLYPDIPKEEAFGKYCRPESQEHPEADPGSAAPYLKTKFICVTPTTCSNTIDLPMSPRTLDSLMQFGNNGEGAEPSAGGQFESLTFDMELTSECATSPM
Description: The DNA binding activity of STAT3 was measured using an electrophoretic mobility shift assay (EMSA) as described in document 1. Put briefly, cells were cultured in a 100 mm culture dish at 37° C. for 24 hours and then treated with MMPP or DMSO. After incubation for 24 hours, the cells were washed three times with cold PBS and nuclear extracts for EMSA experiments were prepared. Relative thickness of the DNA-protein binding band was quantified using Lab Works 4.0 software (UVP Inc., Upland, Calif., USA) after scanning with densitometry.
In order to determine whether MMPP reacted with STAT3 to inhibit DNA binding activity of STAT3, MMPP was exposed to SW480 cells for 1 hour and the DNA binding activity of STAT3 was measured.

SW480 cells [1] = test: Cell viability analysis using MTT assay; assay type: cell-based, human
Description: The human colon cancer cell line, SW480, was purchased from the American Type Culture Collection (Manassas, Va., USA) and cultured in an RPMI (Roswell Park Memorial Institute)-1640 medium (Gibco-BRL) to which 10% heat-inactivated fetal bovine serum (FBS) and penicillin/streptomycin at 37° C. humidified atmosphere of 5% CO2. The cells were cultured in a 100 mm culture dish at a concentration of 4×10^5 cells for experiments.
The influence of 2-methoxy-4-(3-(4-methoxyphenyl)prop-1-en-1-yl)phenol (MMPP) on the viability of cells was confirmed by colorimetric and metabolic activity assay using MTT [3-(4,5-dimethylthiazol-2-yl)-2,5-diphenyltetrazolium bromide]. Put briefly, cells were inoculated on 96-well plates at 1×10^4 cells/well and cultured for 24 hours. Cells were treated with 2.5 to 10 μg/ml MMPP or DMSO (dimethyl sulfoxide), a solvent for MMPP. After culturing for 24 hours, the medium including MMPP was removed and replaced with 100 μl of fresh medium. After culturing for 1.5 hours, medium including MTT was removed and 200 μl DMSO was added to each well. The plate was then agitated at a weak intensity until the color reaction of the plate became uniform. Colorimetric evaluation was performed using a microplate reader at 540 nm.
The inhibitory effect of MMPP on the growth of human colon cancer cells was examined using SW480 cells.

SW480 cells [2] = test: Western blot analysis of cell cycle regulatory and apoptosis signal proteins; assay type: cell-based, human
Description: Lysates, cytosolic and nuclear extracts of whole cells were obtained. SDS-PAGE and western blot analysis were performed as described in published documents 1 and 2 [1, 2]. Put briefly, the cells of 5×10^5 cells/well were inoculated in 6-well plates and cultured for 24 hours. Cells were then treated with MMPP or DMSO for 24 hours. The treated cells were washed twice with PBS and lysed. Proteins from the lysed cells were separated on 10 to 15% SDS-PAGE. Proteins were transferred to a PVDF membrane and the PVDF membrane was blocked with TBS/T-buffer including 5% defatted milk for 2.5 hours at room temperature. The membrane to which the proteins are transferred was analyzed by using a mouse monoclonal antibody for as a primary antibody. Protein expression was visualized using a chemiluminescence reagent (Amersham Pharmacia Biotech, Inc., Buckinghamshire, UK) and measured using a in which a CCD camera (Fusion-FX, Fisher BioTech, Ltd., Wembley, Australia) is installed.
2. Effect of MMPP on Cell Cycle Regulatory Signal and Apoptosis Signal In order to investigate the basic mechanism of the growth inhibitory effect of colon cancer cells of MMPP, it was examined whether MMPP treatment affects cell cycle regulation and apoptosis signals in SW480 cells.

SW480 xenografted mouse = test: Anticancer activity in a colon cancer xenograft animal model; assay type: in vivo; details: twice a week for 3 weeks, nude mice

## COc1ccc(C/C=C/c2ccc(O)c(OC)c2)cc1 [MMPP, 2-methoxy-4-(3-(4-methoxyphenyl)propyl-1-en-1-yl)phenol]
STAT3
  DNA binding activity of STAT3: effectively inhibited DNA binding activity of STAT3
SW480 cells [1]
  cell density compared to the control group: significantly reduced cell density
SW480 cells [1]; Homo sapiens, MMPP 2.5 to 10 μg/ml, treated for 24 hours, MTT, read-out: IC50 value, inhibition of the growth of SW480 cells
  IC50: 5.9 mg/L (≈ 21.8 µM)
SW480 cells [2]
  expression of cell cycle regulatory signal proteins: effectively reduced the expression
  expression of pro-apoptotic proteins cleaved caspase-3, cleaved caspase-8 and Bax: increased the expression
  expression of the anti-apoptotic protein Bcl-2: reduced the expression
SW480 xenografted mouse; 2.5 mg/kg intraperitoneal
  Tumor volume compared to the control group: 65%
SW480 xenografted mouse; 5 mg/kg intraperitoneal
  Tumor volume compared to the control group: 35%
